Measured values from publication PMC3986099, “Development of a Radioiodinated Triazolopyrimidine Probe for Nuclear Medical Imaging of Fatty Acid Binding Protein 4” (PLoS ONE, 2014).

What was measured:
[1] = Parallel artificial membrane permeation assay (PAMPA); type: in vitro ADME; settings: room temperature, read-out: permeability (PAMPA)
Method: The permeability of TAP1 was measured using a pre-coated PAMPA plate system (BD Biosciences) following the manufacturer's procedures. Briefly, TAP1 (100–200 µM, 0.2 ml) was added to donor plate and PBS (-) (0.2 ml) was added to the acceptor plate in the PAMPA plate assembly. After coupling both plates together and incubating at room temperature for 5 hr, 0.15 ml of the sample was obtained from each plate and 0.15 ml of the original compound solution was also obtained. Then, the absorbance of each sample was measured at 280 nm. The permeability was calculated as: Pe (cm/s) = (−ln[1−CA/Cequilibrium])/St (1/VD+1/VA) and Cequilibrium = [CDVD+CAVA]/(VD+VA). CD = C0 (AD−Abuffer)/(A0−Abuffer) and CA = C0 (AA−Abuffer)/(A0−Abuffer). C0 is the concentration of the start sample and A0, Abuffer, AD and AA are absorbances of the starting sample, buffer, donor and acceptor, respectively. VD and VA are the donor and acceptor volumes, respectively. S is the membrane area and t is the incubation time.

his-tagged FABP4 [2] = target: T1, his-tagged FABP4 (Homo sapiens, UniProt P15090); assay: Competition binding assay with 1,8-ANS as tracer
T1 construct: purchased Cayman Chemical Company
Method: In accordance with previous reports, competition binding experiments were performed using 8-anilino-1-naphthalene sulfonic acid (1,8-ANS) as the tracer. Briefly, a mixture containing 0.12 ml phosphate buffer (50 mM, pH = 7.4), 0.03 ml TAP1 (2.6 mM–300 nM) in DMSO, 0.075 ml 1,8-ANS (24 nM) in phosphate buffer (0.2% ethanol, v/v) and 0.075 ml his-tagged FABP4 (1 µM) in phosphate buffer was incubated at room temperature for 5 min. […] The inhibition constants (K i) were calculated using the Cheng-Prusoff equation: K i = IC50/(1+[L]/K d), where [L] is the 1,8-ANS concentration and K d is the 1,8-ANS dissociation constant.

[3] = test system: differentiated THP-1 cells; assay: Cell uptake study and inhibition assay; type: cell-based, Human; settings: 4 °C, 3 hr
Method: Human monocytic leukemia THP-1 cells were obtained from ATCC and rat glioma C6 cells were from the Health Science Research Resources Bank. THP-1 cells were cultured in Gibco RPMI 1640 medium (Nissui Pharmaceutical Co., Ltd.) supplemented with 10% heat-inactivated fetal bovine serum (Nichirei Bioscience Inc.), 50 U/ml penicillin and 50 µg/ml streptomycin (Nacalai Tesque, Inc.) at 37 °C in 5% CO2. C6 cells were cultured in McCoy's 5A Modified Medium supplemented with 10% heat-inactivated fetal bovine serum, 50 U/ml penicillin and 50 µg/ml streptomycin at 37 °C in 5% CO2. For cell uptake assays, THP-1 monocytes were differentiated into macrophages by incubation with 100 nM phorbol 12-myristate 13-acetate for 24 hr.
For the cell uptake study, tubes were pre-incubated with 50 mg/ml skim milk in PBS (-) at 4 °C for 3 hr. Then, 0.4 ml of differentiated THP-1 cells (1.0×10^6 cells/tube) in PBS (-) and 0.05 ml [^125I]TAP1 in PBS (-) (0.008 MBq, 5% ethanol, v/v) were added to the tubes, and the cells were incubated at 4 °C for 3 hr. […] The radioactivity of the tubes was measured with a well-type γ-counter. […] Binding ratios were calculated as (radioactivity in tubes)/(total applied radioactivity)/(protein abundance) ×100 (%Dose/mg protein). […] After incubation at 4 °C for 3 hr, the radioactivity measurement and calculation of the binding ratio were performed as described above. […]

his-tagged FABP4 [4] = target: T1, his-tagged FABP4; assay: Selectivity binding assay with FABP immobilized on Ni-NTA magnetic agarose beads
Method: For the selectivity binding assay, his-tagged FABP3 (0.75 mg/ml), FABP4 (0.75 mg/ml) and FABP5 (0.70 mg/ml) in 50 mM phosphate buffer containing 100 mM NaCl (20% glycerol, v/v, pH = 7.2) were used. Immobilization was performed following the manufacturer's procedures. Each solution of his-tagged FABP3 ([…], 1.5 µg), FABP4 (0.002 ml, 1.5 µg) or FABP5 (0.002 ml, 1.4 µg) was incubated with 0.02 ml Ni-NTA Magnetic Agarose Beads (Qiagen) and 0.5 ml protein binding buffer (50 mM NaH2PO4, 300 mM NaCl, 10 mM imidazole, pH = 8.0) at room temperature for 1 hr. After supernatant removal, protein binding buffer with 1% BSA was added, and the mixture was incubated at room temperature for 30 min. After removal of the supernatant, 0.4 ml of interaction buffer (50 mM NaH2PO4, 300 mM NaCl, 10 mM imidazole, and 0.005% Tween, v/v, pH = 8.0) and 0.05 ml [^125I]TAP1 (0.01 MBq) in interaction buffer (5% ethanol, v/v) were added. For measurement of non-specific binding, 0.05 ml of nonradioactive TAP1 in interaction buffer (5% ethanol, v/v, 11.3 µM) was added with the [^125I]TAP1. After incubation at room temperature for 2 hr, the supernatants were removed, and the beads washed with interaction buffer (5% ethanol, v/v). The radioactivity of beads in the tubes was measured with a well-type γ-counter (1480 Wizard3, PerkinElmer Japan Co., Osaka, Japan). Binding ratios were calculated as (radioactivity of beads)/(total applied radioactivity)/(protein abundance on beads)×100 (%Dose/µg protein).

[5] = test system: 3T3-L1 preadipocytes and differentiated adipocytes; assay: Cell uptake study in adipocytes and preadipocytes; type: cell-based, Murine; settings: concentration-dependent, 0-100 μM
Method: Murine 3T3-L1 preadipocytes were obtained from ATCC and cultured in Dulbecco's Modified Eagle Medium (Nissui Pharmaceutical Co., Ltd.) supplemented with 10% heat-inactivated fetal bovine serum, 50 U/ml penicillin and 50 μg/ml streptomycin at 37 °C in 5% CO2. For cell uptake assay, differentiation of 3T3-L1 cells was performed as described previously. Briefly, two days after confluence, the medium was replaced with DMEM containing 10% FBS and inducers ([…], 10 μg/ml insulin, 0.5 mM 3-isobutyl-1-methylxanthine and 10 μM pioglitazone hydrochloride) for 2 days. The medium was then changed to DMEM supplemented with 10% FBS, 10 μg/ml insulin and 10 μM pioglitazone hydrochloride, and then incubated for 2 days. Then, the medium was changed to DMEM supplemented with 10% FBS and 10 μM pioglitazone hydrochloride every other day. After 8-10 days, the differentiated adipocytes were used for experiments.
For the cell uptake study using adipocytes, the medium of 24-well plate, in which the differentiated adipocytes or undifferentiated 3T3-L1 cells are cultured, was removed. […] Following the measurement of the radioactivity of collected cell lysate with a well-type γ-counter, protein determination was performed. […] Binding ratios were calculated as (radioactivity in collected cells)/(total applied radioactivity)/(protein abundance) x 100 (%Dose/mg protein).

T1 sequence (P15090 whole entry): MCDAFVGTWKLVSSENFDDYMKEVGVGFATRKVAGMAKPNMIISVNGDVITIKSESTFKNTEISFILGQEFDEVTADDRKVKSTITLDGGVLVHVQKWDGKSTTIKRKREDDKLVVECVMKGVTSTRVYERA

Compound: O=c1cc(COc2cccc(I)c2)[nH]c2nc(-c3ccccc3)nn12 [TAP1, 5-{(3-Iodophenoxy)methyl}-2-phenyl-[1], [2], [4]triazolo[1,5-a]pyrimidin-7(4H)-one]
- Papp at 5 h [1]: 12.6 ± 2.9 ×10⁻⁶ cm/s
- Ki (his-tagged FABP4 [2]; competition with 1,8-ANS, FABP4): 44.5 ± 9.8 nM
- inhibition of [^125I]TAP1 uptake into differentiated THP-1 cells [3]: significantly inhibited
- FABP4 binding relative to FABP3 (his-tagged FABP4 [4]; FABP4 over FABP3): more than 10 fold
- FABP4 binding relative to FABP5 (his-tagged FABP4 [4]; FABP4 over FABP5): more than 10 fold

Compound: O=S(=O)(O)c1cccc2cccc(Nc3ccccc3)c12 [1,8-ANS, 8-anilino-1-naphthalene sulfonic acid, reference compound]
- Kd (his-tagged FABP4 [2]): 1200 nM

Compound: CCc1c(-c2ccccc2)c(-c2ccccc2)nn1-c1ccccc1-c1cccc(OCC(=O)O)c1 [BMS309403, reference compound]
- inhibition of [^125I]TAP1 uptake into adipocytes [5]: significantly inhibited
- inhibition of [^125I]TAP1 uptake into differentiated THP-1 cells [3]: significantly inhibited
